Experimental data from US20240041042A1, “1-(PYRIDYL)-5-AZINYLPYRAZOLE DERIVATIVES, AND THEIR USE FOR CONTROL OF UNDESIRED PLANT GROWTH” (Bayer Aktiengesellschaft, priority 2020, published 2024).

Columns and labels:
Format in all cases: in vivo
[1] = test system: Avena fatua (AVEFA); experiment: Pre-emergence herbicidal action against AVEFA; details: visual scoring after about 3 weeks vs untreated controls
Excerpt: (§1) Seeds of monocotyledonous and dicotyledonous weed plants and crop plants are placed in plastic or organic planting pots and covered with soil. The compounds of the invention, formulated in the form of wettable powders (WP) or as emulsion concentrates (EC), are then applied to the surface of the covering soil as aqueous suspension or emulsion with addition of 0.5% additive at a water application rate equivalent to 600 l/ha. After the treatment, the pots are placed in a greenhouse and kept under good growth conditions for the trial plants. After about 3 weeks, the effect of the preparations is scored visually in comparison with untreated controls as percentages. For example, 100% activity=the plants have died, 0% activity=like control plants.
(§2) Tables A1 to A13 below show the effects of selected compounds of the general formula (I) on various harmful plants and at an application rate corresponding to 320 g/ha or lower, which were obtained by the experimental procedure mentioned above. The appendices “a”, “b” and “c” give differentiation by dosage used with otherwise the same harmful plants tested.

[2] = test system: Verconica persica (VERPE); experiment: Pre-emergence herbicidal action against VERPE
Excerpt: as §1, §2

[3] = test system: Setaria viridis (SETVI); experiment: Post-emergence herbicidal action against SETVI
Protocol: (§3) Seeds of monocotyledonous and dicotyledonous weeds and crop plants are placed in sandy loam in plastic or organic planting pots, covered with soil and cultivated in a greenhouse under controlled growth conditions. 2 to 3 weeks after sowing, the test plants are treated at the one-leaf stage. The compounds of the invention, formulated in the form of wettable powders (WP) or as emulsion concentrates (EC), are then sprayed onto the green parts of the plants as aqueous suspension or emulsion with addition of 0.5% additive at a water application rate of 600 l/ha (converted). After the test plants have been kept in the greenhouse under optimum growth conditions for about 3 weeks, the activity of the preparations is rated visually in comparison to untreated controls. For example, 100% activity=the plants have died, 0% activity=like control plants.
(§4) Tables B1 to B13 below show the effects of selected compounds of the general formula (I) according to Table 1 on various harmful plants and at an application rate corresponding to 320 g/ha or lower, which were obtained by the experimental procedure mentioned above. The appendices “a”, “b” and “c” give differentiation by dosage used with otherwise the same harmful plants tested.

[4] = test system: Polygonum convolvulus (POLCO); experiment: Pre-emergence herbicidal action against POLCO
Excerpt: as §1, §2

[5] = test system: Verconica persica (VERPE); experiment: Post-emergence herbicidal action against VERPE
Protocol: as §3, §4

[6] = test system: Pharbitis purpurea (PHBPU); experiment: Post-emergence herbicidal action against PHBPU
Protocol: as §3, §4

[7] = test system: Amaranthus retroflexus (AMARE); experiment: Pre-emergence herbicidal action against AMARE; details: visual scoring after about 3 weeks vs untreated controls
Excerpt: as §1, §2

[8] = test system: Echinochloa crus-galli (ECHCG); experiment: Post-emergence herbicidal action against ECHCG
Protocol: as §3, §4

[9] = test system: Viola tricolor (VIOTR); experiment: Pre-emergence herbicidal action against VIOTR
Excerpt: as §1, §2

[10] = test system: Polygonum convolvulus (POLCO); experiment: Post-emergence herbicidal action against POLCO; details: dosage 320 g/ha
Protocol: as §3, §4

[11] = test system: Abutilon theophrasti (ABUTH); experiment: Post-emergence herbicidal action against ABUTH; details: 320 g/ha, visual rating about 3 weeks after treatment vs untreated controls (100% = plants have died, 0% = like control plants)
Protocol: as §3, §4

[12] = test system: Echinochloa crus-galli (ECHCG); experiment: Pre-emergence herbicidal action against ECHCG
Excerpt: as §1, §2

[13] = test system: Amaranthus retroflexus (AMARE); experiment: Post-emergence herbicidal action against AMARE
Protocol: as §3, §4

[14] = test system: Lolium rigidum (LOLRI); experiment: Post-emergence herbicidal action against LOLRI
Protocol: as §3, §4

[15] = test system: Avena fatua (AVEFA); experiment: Post-emergence herbicidal action against AVEFA; details: visual rating about 3 weeks after treatment
Protocol: as §3, §4

[16] = test system: Alopecurus myosuroides (ALOMY); experiment: Pre-emergence herbicidal action against ALOMY; details: scored visually after about 3 weeks, 100% = plants have died
Excerpt: as §1, §2

[17] = test system: Matricaria inodora (MATIN); experiment: Pre-emergence herbicidal action against MATIN
Excerpt: as §1, §2

[18] = test system: Oryza sativa (ORYSA); details: crop plant compatibility, 80 g/ha, effect in comparison to untreated controls
Protocol: as §3
(§5) The observed effects on selected crop plants are reported here in comparison to the untreated controls (values in %). The appendices “a”, “b” and “c” give differentiation by dosage used with otherwise the same crop plants tested.

[19] = test system: Viola tricolor (VIOTR); experiment: Post-emergence herbicidal action against VIOTR
Protocol: as §3, §4

[20] = test system: Alopecurus myosuroides (ALOMY); experiment: Post-emergence herbicidal action against ALOMY; details: visual rating about 3 weeks after treatment vs untreated controls (100% = plants have died, 0% = like control plants)
Protocol: as §3, §4

[21] = test system: Lolium rigidum (LOLRI); experiment: Pre-emergence herbicidal action against LOLRI
Excerpt: as §1, §2

[22] = test system: Setaria viridis (SETVI); experiment: Pre-emergence herbicidal action against SETVI
Excerpt: as §1, §2

[23] = test system: Zea mays (ZEAMX); details: for Post-emergence action against ZEAMX in %: crop plant compatibility, 80 g/ha, effect vs untreated controls
Protocol: as §3, §5

[24] = test system: Pharbitis purpurea (PHBPU); experiment: Pre-emergence herbicidal action against PHBPU; details: dosage 320 g/ha
Excerpt: as §1, §2

SMILES | Pre-emergence action against AVEFA in % ([1]; 320 g/ha) | Pre-emergence action against VERPE in % ([2]; dosage 320 g/ha) | Post-emergence action against SETVI in % ([3]; dosage 320 g/ha) | Pre-emergence action against POLCO in % ([4]; dosage 80 g/ha) | Pre-emergence action against POLCO in % ([4]; dosage 320 g/ha) | Post-emergence action against VERPE in % ([5]; 320 g/ha, VERPE) | Post-emergence action against PHBPU in % ([6]; dosage 80 g/ha) | Post-emergence action against PHBPU in % ([6]; dosage 320 g/ha) | Pre-emergence action against AMARE in % ([7]; 80 g/ha) | Pre-emergence action against AMARE in % ([7]; 320 g/ha) | Post-emergence action against ECHCG in % ([8]; dosage 80 g/ha) | Pre-emergence action against VIOTR in % ([9]; 320 g/ha, Viola tricolor) | Pre-emergence action against VIOTR in % ([9]; dosage 80 g/ha) | Pre-emergence action against ECHCG in % ([12]; dosage 320 g/ha) | Pre-emergence action against ALOMY ([16]; 80 g/ha) | Pre-emergence action against ALOMY ([16]; 320 g/ha) | Post-emergence action against ALOMY in % ([20]; 80 g/ha) | Pre-emergence action against LOLRI in % ([21]; dosage 80 g/ha) | Pre-emergence action against LOLRI in % ([21]; dosage 320 g/ha) | Pre-emergence action against SETVI in % ([22]; dosage 320 g/ha) | also measured
C[C@@H](Oc1nn(-c2nc(F)ccc2F)c(-c2ccc(F)nc2)c1Br)C(=O)O [Example I-333] | 90% | 100% | 80% | 90% | 90% | 90% | 80% | 90% | 90% | 100% | 80% | 100% | 100% | 90% | 90% | 100% | 90% | 80% | 100% | 90% | Pre-emergence action against AVEFA in % ([1]; 80 g/ha): 80%; Post-emergence action against ECHCG in % ([8]; dosage 320 g/ha): 90%; Post-emergence action against POLCO in % [10]: 80%; Post-emergence action against ABUTH in % [11]: 80%; Post-emergence action against AMARE in % ([13]; 320 g/ha, visual rating about 3 weeks after treatment): 80%; Post-emergence action against LOLRI in % ([14]; dosage 320 g/ha): 90%; Post-emergence action against AVEFA in % ([15]; 80 g/ha): 80%; Post-emergence action against AVEFA in % ([15]; 320 g/ha): 90%; Pre-emergence action against MATIN in % ([17]; dosage 80 g/ha): 80%; Pre-emergence action against MATIN in % ([17]; dosage 320 g/ha): 90%; Post-emergence action against ORYSA in % [18]: 20%; Post-emergence action against VIOTR in % ([19]; 320 g/ha): 80%; Post-emergence action against ALOMY in % ([20]; 320 g/ha): 90%
C[C@@H](Oc1nn(-c2nc(F)ccc2F)c(-c2ccc(F)nc2)c1Cl)C(=O)O [Example I-311] | 90% | 90% | 80% | 80% | 90% | 90% | – | 90% | 80% | 90% | 80% | 100% | 90% | 100% | 80% | 90% | 80% | 90% | 90% | 100% | Pre-emergence action against VERPE in % ([2]; dosage 80 g/ha): 80%; Post-emergence action against ECHCG in % ([8]; dosage 320 g/ha): 90%; Post-emergence action against POLCO in % [10]: 80%; Post-emergence action against ABUTH in % [11]: 80%; Post-emergence action against LOLRI in % ([14]; dosage 320 g/ha): 80%; Post-emergence action against AVEFA in % ([15]; 320 g/ha): 80%; Pre-emergence action against MATIN in % ([17]; dosage 80 g/ha): 80%; Pre-emergence action against MATIN in % ([17]; dosage 320 g/ha): 90%; Post-emergence action against ORYSA in % [18]: 20%; Post-emergence action against ZEAMX in % [23]: 10%; Post-emergence action against VIOTR in % ([19]; 80 g/ha): 80%; Post-emergence action against VIOTR in % ([19]; 320 g/ha): 80%; Post-emergence action against ALOMY in % ([20]; 320 g/ha): 90%
CCOC(=O)COc1nn(-c2ncccc2F)c(-c2ccc(F)nc2)c1C1CC1 [Example I-40] | 100% | 100% | – | – | 80% | – | 80% | – | 80% | 100% | 90% | 100% | 90% | 100% | 100% | 100% | 100% | 90% | 100% | 100% | Post-emergence action against SETVI in % ([3]; dosage 80 g/ha): 80%; Post-emergence action against VERPE in % ([5]; dosage 80 g/ha): 80%; Pre-emergence action against ECHCG in % ([12]; dosage 80 g/ha): 90%; Post-emergence action against AMARE in % ([13]; 80 g/ha, visual rating about 3 weeks after treatment vs untreated controls (100% = plants have died, 0% = like control plants)): 80%; Post-emergence action against LOLRI in % ([14]; dosage 80 g/ha): 90%; Pre-emergence action against PHBPU in % [24]: 80%; Post-emergence action against AVEFA in % ([15]; 80 g/ha): 80%; Post-emergence action against ZEAMX in % (crop plant compatibility) ([23]; 20 g/ha, ZEAMX, effect in comparison to untreated controls): 0%; Post-emergence action against ZEAMX in % [23]: 20%; Pre-emergence action against SETVI in % ([22]; dosage 80 g/ha): 100%
